Experimental data taken from patent publication US10463592B2, “Peptide with anti-aging effect and use thereof” (Osaka University, priority 2013, dated 2019).

Tests used:
NHDF (NB) cells = experiment: Hyaluronic acid production by fibroblasts, ELISA; format: cell-based, human; conditions: for Hyaluronic acid production (% of control): highest value over 3, 10, 30, 100 and 300 μM, 5 days
Description: The amount of the hyaluronic acid production by fibroblasts was determined by ELISA. As a control, a group containing no peptide was used. NHDF (NB) cells were seeded in 24-well plates and cultured overnight (2×10^4 cells/500 μL per well). The culture medium used was Medium 106 (containing 1% FBS without growth supplements). Twenty hours after cell seeding, 500 μL of a solution of each peptide in the culture medium was added to each well to a final peptide concentration of 3, 10, 30, 100 or 300 μM. To control wells, 500 μL of the culture medium alone was added. The cells were cultured in a 5% CO2 incubator at 37° C. for 5 days. After the culture, the culture supernatant was transferred into a 1.5-mL tube and centrifuged at 15,000 rpm at 4° C. for 5 minutes, and the supernatant was harvested in a fresh tube. The amount of hyaluronic acid in the culture supernatant was determined using QnE Hyaluronic Acid (HA) ELISA Assay (Biotech Trading Partners) in accordance with the kit protocol. The percent hyaluronic acid production was calculated as the ratio (%) of the ELISA absorbance of each peptide addition group to that of the control group. The effect of promoting hyaluronic acid production was evaluated on the basis of the percent hyaluronic acid production.
The examination was conducted in the same manner as in Example 4 except that the percent hyaluronic acid production was determined as follows: the amount of hyaluronic acid was quantified from the ELISA calibration curve and the quantified value was used to calculate the ratio (%) of the amount of the hyaluronic acid production of each peptide addition group to that of the control group.

[1] = test system: Normal human dermal fibroblasts (NHDF); experiment: Fibroblast growth-promoting activity, Cell Counting Kit (WST-1); format: cell-based; conditions: for Fibroblast growth (% of control): NHDF, 2 days culture, WST-1
Description: The fibroblast growth-promoting activity of the peptides was determined using Cell Counting Kit (WST-1) (Dojindo Laboratories). As a control, a group containing no peptide was used. Normal human dermal fibroblasts (from newborns) (Kurabo Industries Ltd., hereinafter called NHDF) were seeded in 96-well plates (0.5×10^4 cells/100 μL per well). The culture medium used was Medium 106 (containing 1% FBS without growth supplements). About 3 hours after cell seeding, 100 μL of a solution of each peptide in the culture medium was added to a final peptide concentration of 0.3, 1, 3, 10, or 30 μM. To control wells, 100 μL of the culture medium alone was added. To blank wells containing no cells, 200 μL of the culture medium alone was added. The cells were cultured in a CO2 incubator for 2 days. After the culture, 20 μL of the WST-1 reagent was added to each well and the plates were allowed to stand in a CO2 incubator for about 2 to 4 hours. The absorbance at 450 nm and 620 nm was determined with a microplate reader (Wallac 1420 ARVOsx (program: WST-1)), and the measured values were corrected by the equation: OD450-OD620. The net OD450 was calculated by subtracting the mean OD450-OD620 of the blank wells from the OD450-OD620 of the test wells. The percent fibroblast growth was calculated as the ratio (%) of the net OD450 of each peptide addition group to that of the control group. The effect of promoting fibroblast growth was evaluated on the basis of the percent fibroblast growth.
The examination was conducted in the same manner as in Example 2 except that the concentration of each peptide was set at 3, 10, 30, 100 or 300 μM.

[2] = ratio of ELISA absorbance (Example 4)
[3] = highest value over 0.3, 1, 3, 10 and 30 μM
[4] = Example 4, 3 to 300 μM, ELISA absorbance ratio
[5] = at concentrations of 0.3 to 30 μM (Example 2)
[6] = Example 5, 3 to 300 μM, ELISA calibration curve
[7] = amount quantified from ELISA calibration curve (Example 5)
[8] = at concentrations of 30 to 300 μM (Example 3)
[9] = highest value over 3, 10, 30, 100 and 300 μM

For RLRKR (Ac-RLRKR-NH2) [OSK-13], the “Hyaluronic acid production (% of control)” value (NHDF (NB) cells; [2]) was 74.3 % of control and the “Fibroblast growth (% of control)” value [1, 3] was 99.3 % of control.
With ELKLI (Ac-ELKLI-NH2) [OSK-2] the “increase of hyaluronic acid production by fibroblasts” value (shortened to “increase”) (NHDF (NB) cells; [4]) was “increased the amount of the hyaluronic acid production by fibroblasts”, the “Hyaluronic acid production (% of control)” value (NHDF (NB) cells; [2]) was 184.0 % of control and the “Fibroblast growth (% of control)” value [1, 3] was 99.7 % of control.
In the case of LRKRL (Ac-LRKRL-NH2) [OSK-14], the “increase” value (NHDF (NB) cells; [4]) was “increased the amount of the hyaluronic acid production by fibroblasts”, the “Hyaluronic acid production (% of control)” value (NHDF (NB) cells; [2]) was 123.6 % of control and the “effect of promoting fibroblast growth” value [1, 5] was “exhibited the effect of promoting fibroblast growth”. The “Fibroblast growth (% of control)” value [1, 3] was 106.8 % of control.
In the case of LKR [OSK-19] (Ac-Leu-Lys-Arg-NH2), the “increase” value (NHDF (NB) cells; [6]) was “increased the amount of the hyaluronic acid production by fibroblasts” and the “Hyaluronic acid production (% of control)” value (NHDF (NB) cells; [7]) was 117.6 % of control.
With RLKR [OSK-18] (Ac-RLKR-NH2) the “increase” value (NHDF (NB) cells; [6]) was “increased the amount of the hyaluronic acid production by fibroblasts” and the “Hyaluronic acid production (% of control)” value (NHDF (NB) cells; [7]) was 131.9 % of control.
In the case of KLIFL (Ac-KLIFL-NH2) [OSK-4], the “increase” value (NHDF (NB) cells; [4]) was “increased the amount of the hyaluronic acid production by fibroblasts”, the “Hyaluronic acid production (% of control)” value (NHDF (NB) cells; [2]) was 212.4 % of control and the “effect of promoting fibroblast growth” value [1, 5] was “exhibited the effect of promoting fibroblast growth”. For the same substance, the “Fibroblast growth (% of control)” value [1, 3] was 102.6 % of control.
In the case of HRLKR [OSK-20], the “Hyaluronic acid production (% of control)” value (NHDF (NB) cells; [7]) was 94.0 % of control.
In the case of RLKRK (Ac-RLKRK-NH2) [OSK-17], the “Hyaluronic acid production (% of control)” value (NHDF (NB) cells; [2]) was 81.8 % of control, the “effect of promoting fibroblast growth” value [1, 5] was “exhibited the effect of promoting fibroblast growth” and the “Fibroblast growth (% of control)” value [1, 3] was 104.2 % of control.
In the case of LIFLH (Ac-LIFLH-NH2) [OSK-5], the “Hyaluronic acid production (% of control)” value (NHDF (NB) cells; [2]) was 65.6 % of control and the “Fibroblast growth (% of control)” value [1, 3] was 97.6 % of control.
“ELKLIFLHRLKRLRKRLKRK (Ac-ELKLIFLHRLKRLRKRLKRK-NH2) [OSK-1]” was tested, and the “increase” value (NHDF (NB) cells; [6]) was “increased the amount of the hyaluronic acid production by fibroblasts”, the “Hyaluronic acid production (% of control)” value (NHDF (NB) cells; [7]) was 2715.8 % of control and the “effect of promoting fibroblast growth” value [1, 5] was “exhibited the effect of promoting fibroblast growth”. The “effect of promoting fibroblast growth” value [1, 8] was “exhibited the effect of promoting fibroblast growth”, the “Fibroblast growth (% of control)” value [1, 3] was 146.4 % of control and the “Fibroblast growth (% of control)” value [1, 9] was 144.9 % of control.
For LKLIF (Ac-LKLIF-NH2) [OSK-3], the “Hyaluronic acid production (% of control)” value (NHDF (NB) cells; [2]) was 79.9 % of control, the “effect of promoting fibroblast growth” value [1, 5] was “exhibited the effect of promoting fibroblast growth” and the “Fibroblast growth (% of control)” value [1, 3] was 104.7 % of control.
For RLKRL [OSK-10], the “increase” value (NHDF (NB) cells; [4]) was “increased the amount of the hyaluronic acid production by fibroblasts”, the “increase” value (NHDF (NB) cells; [6]) was “increased the amount of the hyaluronic acid production by fibroblasts” and the “Hyaluronic acid production (% of control)” value (NHDF (NB) cells; [7]) was 409.1 % of control. For the same substance, the “Hyaluronic acid production (% of control)” value (NHDF (NB) cells; [2]) was 198.2 % of control, the “effect of promoting fibroblast growth” value [1, 5] was “exhibited the effect of promoting fibroblast growth” and the “effect of promoting fibroblast growth” value [1, 8] was “exhibited the effect of promoting fibroblast growth”. The “Fibroblast growth (% of control)” value [1, 3] was 116.2 % of control and the “Fibroblast growth (% of control)” value [1, 9] was 149.9 % of control.
LHRLK (Ac-LHRLK-NH2) [OSK-8] was tested, and the “increase” value (NHDF (NB) cells; [4]) was “increased the amount of the hyaluronic acid production by fibroblasts”, the “Hyaluronic acid production (% of control)” value (NHDF (NB) cells; [2]) was 110.5 % of control and the “Fibroblast growth (% of control)” value [1, 3] was 98.8 % of control.
In the case of RLKRL [OSK-21], the “increase” value (NHDF (NB) cells; [6]) was “increased the amount of the hyaluronic acid production by fibroblasts” and the “Hyaluronic acid production (% of control)” value (NHDF (NB) cells; [7]) was 109.3 % of control.
For LKRLR [OSK-11], the “increase” value (NHDF (NB) cells; [4]) was “increased the amount of the hyaluronic acid production by fibroblasts”, the “increase” value (NHDF (NB) cells; [6]) was “increased the amount of the hyaluronic acid production by fibroblasts” and the “Hyaluronic acid production (% of control)” value (NHDF (NB) cells; [7]) was 255.0 % of control. For the same substance, the “Hyaluronic acid production (% of control)” value (NHDF (NB) cells; [2]) was 112.1 % of control, the “effect of promoting fibroblast growth” value [1, 5] was “exhibited the effect of promoting fibroblast growth” and the “effect of promoting fibroblast growth” value [1, 8] was “exhibited the effect of promoting fibroblast growth”. The “Fibroblast growth (% of control)” value [1, 3] was 112.5 % of control and the “Fibroblast growth (% of control)” value [1, 9] was 158.5 % of control.
For RKRLK (Ac-RKRLK-NH2) [OSK-15], the “increase” value (NHDF (NB) cells; [4]) was “increased the amount of the hyaluronic acid production by fibroblasts”, the “Hyaluronic acid production (% of control)” value (NHDF (NB) cells; [2]) was 103.9 % of control and the “effect of promoting fibroblast growth” value [1, 5] was “exhibited the effect of promoting fibroblast growth”. For the same substance, the “Fibroblast growth (% of control)” value [1, 3] was 102.9 % of control.
In the case of LKR [OSK-23], the “increase” value (NHDF (NB) cells; [6]) was “increased the amount of the hyaluronic acid production by fibroblasts” and the “Hyaluronic acid production (% of control)” value (NHDF (NB) cells; [7]) was 113.7 % of control.
For RLKR [OSK-22], the “increase” value (NHDF (NB) cells; [6]) was “increased the amount of the hyaluronic acid production by fibroblasts” and the “Hyaluronic acid production (% of control)” value (NHDF (NB) cells; [7]) was 101.1 % of control.
FLHRL (Ac-FLHRL-NH2) [OSK-7] was tested, and the “Hyaluronic acid production (% of control)” value (NHDF (NB) cells; [2]) was 75.2 % of control and the “Fibroblast growth (% of control)” value [1, 3] was 96.8 % of control.
With KRLRK (Ac-KRLRK-NH2) [OSK-12] the “Hyaluronic acid production (% of control)” value (NHDF (NB) cells; [2]) was 72.0 % of control, the “effect of promoting fibroblast growth” value [1, 5] was “exhibited the effect of promoting fibroblast growth” and the “Fibroblast growth (% of control)” value [1, 3] was 100.3 % of control.
With KRLKR (Ac-KRLKR-NH2) [OSK-16] the “increase” value (NHDF (NB) cells; [4]) was “increased the amount of the hyaluronic acid production by fibroblasts”, the “Hyaluronic acid production (% of control)” value (NHDF (NB) cells; [2]) was 110.6 % of control and the “effect of promoting fibroblast growth” value [1, 5] was “exhibited the effect of promoting fibroblast growth”. The “Fibroblast growth (% of control)” value [1, 3] was 106.1 % of control.
